{"source": "patent US7662769B2", "about": "“Glycosyltransferase GnT-V having neovascularization action” (Suntory Holdings Limited, priority 2002, dated 2010)", "molecules": {"B1": {"name": "GnT-VΔ73: soluble recombinant GnT-V maintaining a glycosyltransferase activity but lacking in transmembrane portion, prepared by a Baculovirus system (protein, UniProt Q09328 74-741, looked up, fragment)", "chain": "AGVMTAYDLKKTLAVLLDNILQRIGKLESKVDNLVVNGTGTNSTNSTTAVPSLVALEKINVADIINGAQEKCVLPPMDGYPHCEGKIKWMKDMWRSDPCYADYGVDGSTCSFFIYLSEVENWCPHLPWRAKNPYEEADHNSLAEIRTDFNILYSMMKKHEEFRWMRLRIRRMADAWIQAIKSLAEKQNLEKRKRKKVLVHLGLLTKESGFKIAETAFSGGPLGELVQWSDLITSLYLLGHDIRISASLAELKEIMKKVVGNRSGCPTVGDRIVELIYIDIVGLAQFKKTLGPSWVHYQCMLRVLDSFGTEPEFNHANYAQSKGHKTPWGKWNLNPQQFYTMFPHTPDNSFLGFVVEQHLNSSDIHHINEIKRQNQSLVYGKVDSFWKNKKIYLDIIHTYMEVHATVYGSSTKNIPSYVKNHGILSGRDLQFLLRETKLFVGLGFPYEGPAPLEAIANGCAFLNPKFNPPKSSKNTDFFIGKPTLRELTSQHPYAEVFIGRPHVWTVDLNNQEEVEDAVKAILNQKIEPYMPYEFTCEGMLQRINAFIEKQDFCHGQVMWPPLSALQVKLAEPGQSCKQVCQESQLICEPSFFQHLNKDKDMLKYKVTCQSSELAKDILVPSFDPKNKHCVFQGDLLLFSCAGAHPRHQRVCPCRDFIKGQVALCKDCL"}, "B2": {"name": "α1,6-fucosyltransferase (protein, UniProt Q9BYC5 1-575, looked up)", "Alpha-(1,6)-fucosyltransferase": "MRPWTGSWRWIMLILFAWGTLLFYIGGHLVRDNDHPDHSSRELSKILAKLERLKQQNEDLRRMAESLRIPEGPIDQGPAIGRVRVLEEQLVKAKEQIENYKKQTRNGLGKDHEILRRRIENGAKELWFFLQSELKKLKNLEGNELQRHADEFLLDLGHHERSIMTDLYYLSQTDGAGDWREKEAKDLTELVQRRITYLQNPKDCSKAKKLVCNINKGCGYGCQLHHVVYCFMIAYGTQRTLILESQNWRYATGGWETVFRPVSETCTDRSGISTGHWSGEVKDKNVQVVELPIVDSLHPRPPYLPLAVPEDLADRLVRVHGDPAVWWVSQFVKYLIRPQPWLEKEIEEATKKLGFKHPVIGVHVRRTDKVGTEAAFHPIEEYMVHVEEHFQLLARRMQVDKKRVYLATDDPSLLKEAKTKYPNYEFISDNSISWSAGLHNRYTENSLRGVILDIHFLSQADFLVCTFSSQVCRVAYEIMQTLHPDASANFHSLDDIYYFGGQNAHNQIAIYAHQPRTADEIPMEPGDIIGVAGNHWDGYSKGVNRKLGRTGLYPSYKVREKIETVKYPTYPEAEK", "notes": "recombinant α1,6-fucosyltransferase used as control glycosyltransferase"}, "B3": {"name": "GnT-VΔ188: GnT-V lacking variant shown in FIG. 3A, recombinant from Sf21 cells (protein, UniProt Q09328 189-741, looked up, fragment)", "chain": "LSEVENWCPHLPWRAKNPYEEADHNSLAEIRTDFNILYSMMKKHEEFRWMRLRIRRMADAWIQAIKSLAEKQNLEKRKRKKVLVHLGLLTKESGFKIAETAFSGGPLGELVQWSDLITSLYLLGHDIRISASLAELKEIMKKVVGNRSGCPTVGDRIVELIYIDIVGLAQFKKTLGPSWVHYQCMLRVLDSFGTEPEFNHANYAQSKGHKTPWGKWNLNPQQFYTMFPHTPDNSFLGFVVEQHLNSSDIHHINEIKRQNQSLVYGKVDSFWKNKKIYLDIIHTYMEVHATVYGSSTKNIPSYVKNHGILSGRDLQFLLRETKLFVGLGFPYEGPAPLEAIANGCAFLNPKFNPPKSSKNTDFFIGKPTLRELTSQHPYAEVFIGRPHVWTVDLNNQEEVEDAVKAILNQKIEPYMPYEFTCEGMLQRINAFIEKQDFCHGQVMWPPLSALQVKLAEPGQSCKQVCQESQLICEPSFFQHLNKDKDMLKYKVTCQSSELAKDILVPSFDPKNKHCVFQGDLLLFSCAGAHPRHQRVCPCRDFIKGQVALCKDCL"}}, "key": {"HSPG on HUVEC": {"system": "HSPG on HUVEC", "test": "release of FGF-2 from HSPG on HUVEC (FGF-2 ELISA of supernatant)", "assay_type": "cell-based, human", "details": "4° C., 2 hours; FIG. 5", "from_the_text": "A basic peptide (KRKRKK peptide) composed of Lys-Arg-Lys-Arg-Lys-Lys (SEQ ID NO: 11) which is an amino acid sequence of from 264 to 269 and a non-basic control peptide (FSGGPL peptide) composed of Phe-Ser-Gly-Gly-Pro-Leu (SEQ ID NO: 12) which is an amino acid sequence of from 291 to 296, of GnT-V, were synthesized, and an influence of these peptides on growth of HUVEC was examined. The peptide was synthesized by a peptide synthesizer A432 (manufactured by Applied Biosystems), and purified by reverse phase HPLC, then, its molecular weight and degree of purification were confirmed by MALDI TOF-MS (Voyager-DE (registered trademark) RP; manufactured by PerSeptive Biosystems). The concentration of FGF-2 was measured by a known method (Barillari, G., et al., American J. Patho. 152, 1161-1166 (1998)). […] After centrifugation at 4° C. and 3000 rpm for 5 minutes, the supernatant was collected, the concentration of FGF-2 in the supernatant was measured in an FGF-2 ELISA system (manufactured by R&D Systems) according to a manual of this system.\nAs described above, various deficient variants of GnT-V and synthetic peptides were added at 4° C. to culture solution of HUVEC, and the amount of FGF-2 released from HSPG on HUVEC was measured."}, "chicken microvessels": {"system": "chicken microvessels", "test": "CAM (chorioallantoic membrane) assay of neovascularization", "assay_type": "in vivo", "details": "ex-vivo, chicken embryo CAM", "protocol": "Acceleration of neovascularization by a GnT-V transformant was confirmed by a CAM (chorioallantoic membrane) assay using an embryo of a chicken fertilized egg. The CAM assay was conducted by a method of Yen et al. (Yen, L., et al., Oncogene 19, 3460-3469 (2000)) and a method of Bernardini (Bernardini, G., et al., Blood 96, 4039-4045 (2000)), both being slightly modified. CAM 8 days after fertilization of white Leghorn was used, and 1×10^5 cells thereof were inoculated on a collagen sponge and maintained for 4 hours. A 5 mm silicon ring was placed on CAM on the collagen sponge and maintained for 48 hours.\nInduction of neovascularization by GnT-V was confirmed also by other in vitro neovascularization assays such as a capillary-like tube formation assay (Ashoton, A. W., et al., J. Biol. Chem. 274, 35562-35570 (1999)) and a migration assay (Zeng, H., et al., J. Biol. Chem. 276, 3271-3279 (2001)) using HUVEC."}, "HUVEC": {"system": "HUVEC", "test": "HUVEC differentiation and growth, incorporation of [3H]-thymidine (DNA synthesis)", "assay_type": "cell-based, human", "details": "[3H]-thymidine incorporation; FIG. 2, 3B, 6", "protocol": "For in vitro evaluation of induction of neovascularization by a GnT-V transformant, the amount of synthesis of DNA of human umbilical vein […] cells (HUVEC) after stimulation with culture solution of a GnT-V transformant was measured by a method of Soker et al.(Soker, S., et al., J. Biol. Chem. 272, 31582-31588 (1997)). HUVEC was inoculated on a 96-well plate coated with type I collagen at a rate of 2×10^3 cells per well, and 24 hours later, the medium was substituted with an MCDB131 medium (not containing FBS and FGF-2) containing 0.1% […] and a starved condition was maintained for 24 hours. The medium was substituted with culture solution of the WiDr cell transformed with the glycosyltransferase gene described in Example 1, and HUVEC was stimulated for 24 hours. HUVEC was maintained for 8 hours with [^3H]-thymidine (1 μCi/ml), and incorporation of [^3H]-thymidine into HUVEC was analyzed by MicroBeta-Counter (manufactured by Wallac) to measure the amount of synthesis of DNA. The result was shown as the mean value of assay results of 6 wells, and the standard deviation was measured. All experiments were repeated at least three times, and the same results were obtained. As apparent from FIG. 1, DNA synthesis of HUVEC stimulated with the culture solution of WiDr cells transformed with a GnT-V gene increased, however, the same effect was not observed in culture solution of WiDr cells transformed with other glycosyltransferase genes.\nPurification of a neovascularization factor present in culture solution of WiDr cells transformed with a GnT-V gene was conducted using various column chromatographies. The neovascularization activity of each fraction was evaluated by differentiation and growth of HUVEC described in Example 3. In heparin affinity chromatography, a fraction of high growth activity of HUVEC was eluted with 0.3 M NaCl. Since known growth factors such as FGF-1, FGF-2, VEGF, placenta-induced growth factor (PIGF) and hepatocyte growth factor (HGF) and the like are eluted with 0.8 to 1.5 M NaCl (Hauser, S. & Weich H. A., Growth Factor 9, 259-268 (1993). Gohda, E., et al., J. Clin. Invest. 81, 414-419 (1998). Marez, A., et al., Biochimie 69, 125-129 (1987). Risau, W., et al., The EMBO J. 7, 959-962 (1988). Rothenthal, R. A., et al., Growth Factor 4, 53-59 (1990)), the above-mentioned nature is utterly different from the natures of these known growth factors. […] A fraction eluted with 0.3 M NaCl in heparin affinity chromatography was subjected to Western blot analysis using an anti-GnT-V antibody to find that the reaction of the anti-GnT-V antibody and the differentiation and growth activity of HUVEC are consistent each other, and the main protein having a differentiation and growth activity of HUVEC present in the fraction is GnT-V itself."}, "[1]": {"test": "glycosyltransferase activity of GnT-V deficient variants", "assay_type": "biochemical", "details": "recombinant variants from Sf21 cells", "from_the_text": "For clarifying which domain of GnT-V is involved in HUVEC growth accelerating activity, a GnT-V lacking variant shown in FIG. 3A was produced. The method of production of a GnT-VΔ188 plasmid is disclosed in a literature of Sasai et al (Sasai, K., et al., Glycobiology (in press)). A transfer plasmid having a GnT-VΔ233 gene was produced by binding a DNA fragment of 1521 base pairs encoding polyhistidine tag at the C-terminal and an amino acid sequence of from Glu234 to Leu741 of human GnT-V, obtained by cutting a GnT-VΔ188 plasmid with EcoRI and EagI, to an EcoRI-EagI site of a transfer vector pAcGP67-A (manufactured by PharMingen). A transfer plasmid having a GnT-VΔ436 gene was produced by binding a DNA fragment of 912 base pairs encoding polyhistidine tag at the C terminal and an amino acid sequence of from Ile437 to Leu741, of human GnT-V, obtained by cutting a GnT-VΔ188 plasmid with EcoRV and EagI, to an EcoRV-EagI site of a transfer vector pAcGP67-A. For production of a recombinant Baculovirus, an insect cell Sf21 was transformed with the transfer plasmid obtained above according to a method known in a literature (Ikeda, Y., et al., J. Biochem. 128, 609-619 (2000)). The recombinant glycosyltransferase derived from the transformed Sf21 cell was purified by Ni^2+-chelating affinity chromatography according to a method disclosed in a literature of Sasaki et al (Sasai, K., et al., Glycobiology (in press))."}}, "note": "“Also recorded” adds a separate entry of the source. Where no end group is shown, it is not given here.", "data": [{"molecule": "heparin [reference compound]", "values": [{"measurement": "release of FGF-2 from HSPG on HUVEC", "setting": "HSPG on HUVEC", "result": "induced release of FGF-2"}]}, {"molecule": "FGF-2: fibroblast growth factor-2 [reference compound]", "values": [{"measurement": "induction of neovascularization in CAM assay", "setting": "chicken microvessels", "result": "induced neovascularization of chicken microvessels"}]}, {"molecule": "FSGGPL [FSGGPL peptide, reference compound]", "values": [{"measurement": "release of FGF-2 from HSPG on HUVEC", "setting": "HSPG on HUVEC", "result": "did not affect release of FGF-2"}, {"measurement": "induction of neovascularization in CAM assay", "setting": "chicken microvessels", "result": "did not have a neovascularization activity"}]}, {"molecule": "KRKRKK [KRKRKK peptide]", "values": [{"measurement": "differentiation and growth of HUVEC (HUVEC growth accelerating activity)", "setting": "HUVEC", "result": "accelerated growth of HUVEC at the same degree as GnT-VΔ73"}, {"measurement": "release of FGF-2 from HSPG on HUVEC", "setting": "HSPG on HUVEC", "result": "released FGF-2"}, {"measurement": "induction of neovascularization in CAM assay", "setting": "chicken microvessels", "result": "induced neovascularization likewise"}]}, {"molecule": "B1", "values": [{"measurement": "differentiation and growth of HUVEC (HUVEC growth accelerating activity)", "setting": "HUVEC", "result": "increased in addition amount-dependent manner; also recorded: had an HUVEC growth and differentiation accentuation action"}, {"measurement": "release of FGF-2 from HSPG on HUVEC", "setting": "HSPG on HUVEC", "result": "released FGF-2"}, {"measurement": "induction of neovascularization in CAM assay", "setting": "chicken microvessels", "result": "induced neovascularization of chicken microvessels"}]}, {"molecule": "B2", "values": [{"measurement": "differentiation and growth of HUVEC (HUVEC growth accelerating activity)", "setting": "HUVEC", "result": "did not show HUVEC growth accelerating activity at all"}]}, {"molecule": "B3", "values": [{"measurement": "differentiation and growth of HUVEC (HUVEC growth accelerating activity)", "setting": "HUVEC", "result": "had an HUVEC growth and differentiation accentuation action"}, {"measurement": "glycosyltransferase activity", "setting": "[1]", "result": "had a glycosyltransferase activity"}, {"measurement": "release of FGF-2 from HSPG on HUVEC", "setting": "HSPG on HUVEC", "result": "released FGF-2"}]}]}
